Where a name gives a salt, the structure may show the parent alone.
System: MK-801-induced hyperactivity
Assay: Antagonism of MK801-induced hyperlocomotion (locomotor activity cages)
Assay type: in vivo, rat
Details: 180 min; for MK-801-induced hyperactivity as measured by a decrease in ambulation: male Sprague-Dawley rats, AR116081 10 or 20 mg/kg oral, each alone; for MK-801-induced hyperactivity as measured by a decrease in ambulation / effect of MK801 on fine movements, a measure of stereotypies / effect on rear measures (rearing activity): Haloperidol 0.05 mg/kg s.c., MK-801 0.3 mg/kg s.c.; for effect of MK801 on fine movements, a measure of stereotypies / effect on rear measures (rearing activity): AR116081 20 mg/kg oral, alone or combined
Experimental: Antagonism of MK801-Induced Hyperlocomotion: a Model of Potential Antipsychotic (“antipositive”) Activity
Because part of the symptomatology of schizophrenia may be related to altered glutamate transmission at the NMDA receptor, the reversal of MK-801-induced hyperlocomotor activity in rodents has been used routinely as an animal model for detecting potential antipsychotic activity (Hoffinan, D. C., J. Neural. Transm. 89:1-10, 1992).
Motor function was assessed using automated locomotor activity cages (Hamilton-Kinder, San Diego) comprised of standard rodent cages surrounded by photocell beams, allowing for automated recording of motor activity. The animals were under no motivational constraints and were free to move around the cages. In this test, male Sprague-Dawley rats (200-325 g body weight) were food deprived overnight prior to testing. On the testing day, they were administered AR116081 orally at a dose of 10 or 20 mg/kg base (substance # 127190 suspended in 1% Tween 80 and 99% distilled water solution, volume injection 10 cc/kg) immediately followed by subcutaneous administration of Haloperidol at a dose of 0.05 mg/kg base (RBI lot # TOW-1990 dissolved in distilled water and pH at 5-6, volume injection 1 cc/kg). The treated rats were placed in the locomotor activity cages 30 min after co-administration of compounds for a 30 min habituation period to the cages and recording of basal locomotor activity. Animals then received (via subcutaneous administration) (+)-MK801 hydrogen maleate at a dose of 0.3 mg/kg salt (RBI/Sigma Lot #108H4705 dissolved in saline, volume injection 1 cc/kg). The rats were immediately placed back into the locomotor activity cages, and activity was measured for 180 min.

SMILES | MK-801-induced hyperactivity as measured by a decrease in ambulation | effect of MK801 on fine movements, a measure of stereotypies (rats) | effect on rear measures (rearing activity) (rats) | motor parameters recorded: ambulation, fine movement and rearing activity (rats, MK-801 0.3 mg/kg s.c. alone)
Cn1ncc(Br)c1-c1cccc(NC(=O)Nc2ccc(Cl)cc2)c1 [AR116081, N-[3-(4-bromo-2-methylpyrazol-3-yl)phenyl][(4-chlorophenyl)amino]carboxamide] | attenuated | attenuated but did not significantly reverse | No effects | –
O=C(CCCN1CCC(O)(c2ccc(Cl)cc2)CC1)c1ccc(F)cc1 [Haloperidol] | attenuated | attenuated but did not significantly reverse | No effects | –
C[C@]12N[C@H](Cc3ccccc31)c1ccccc12 [MK-801, (+)-MK801 hydrogen maleate] | – | – | – | significant increase

From US20020156068A1, “Anti-psychosis combination” (priority 2001, published 2002)
